The data set in a line: Half life in mouse plasma. Type of data set: ADME, cell-free.

Molecules are shown by their SMILES.

Regarding `C[C@H](CC#CC(C)(C)O)[C@H]1CC[C@@H]2/C(=C/C=C3C[C@@H](O)C[C@H](O)C3)CCC[C@@]21C` [INECALCITOL], the half-life was 18.3 min.

As usually defined, the half-life is how long it takes for the measured level to halve. Low values mean fast loss, high ones slow loss.

These data come from ChEMBL document CHEMBL5230105, “Vitamin D and its analogs as anticancer and anti-inflammatory agents” (Eur J Med Chem, 2020).
